These results are taken from patent US8273754B2, “Substituted 1H-pyrazolo[3,4-D]pyrimidine-6-amine compounds” (ArQule, Inc., priority 2008, dated 2012).

Like-named read-outs stand apart in the source and are kept apart here. Where only a bound is given, the exact number is not on record here.

The test relates to cancer cells. As to the kind of experiment: MTS cell growth inhibition assay (72 hours). It is filed as cell-based. Summed up: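 Growth inhibition read as formazan absorbance at 492 nm after 4 h MTS/PMS, following 72 h compound exposure at 37 °C in 1% FBS DMEM (cells pre-seeded 18 h). IC50 = 50% absorbance reduction; inhibition graded in bands.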
Setting [1] is: Homo sapiens, DLD-1, 72 h, DLD-1 cells, read-out: DLD-1 MTS 72 hr at 10 μM.
[2] abbreviates: Homo sapiens, KATO III, 72 h, KATO III cells, read-out: KATO III MTS 72 hr at 10 μM.
Setting [3] is: Homo sapiens, MDA-MB-231, 72 h, MDA-MB-231 cells, read-out: MDA-MB-231 MTS 72 hr at 10 μM.
[4] abbreviates: Homo sapiens, NCI-H1299, 72 h, NCI-H1299 cells, read-out: NCI-H1299 MTS 72 hr at 10 μM.
The mark [5] stands for this setting: PaCa-2, 72 h, PACA-2 cells, read-out: PACA-2 MTS 72 hr at 10 μM.

In the case of `Nc1nc(NC2Cc3ccccc3N(S(=O)(=O)c3cccc(NC(=O)Nc4c(F)cccc4F)c3)C2)c2cn[nH]c2n1` (stereo not shown) [Compound 203, 1-[3-({3-[(6-amino-1H-pyrazolo[3,4-d]pyrimidin-4-yl)amino]-3,4-dihydroquinolin-1(2H)-yl}sulfonyl)phenyl]-3-(2,6-difluorophenyl)urea], the inhibition at 10 µM was < 50% under setting [1]; < 50% under setting [2]; < 50% under setting [3]; < 50% under setting [4]; 50 to 79% under setting [5].

In the case of `Cc1ccc(F)c(CN2CC(Nc3nc(N)nc4[nH]ncc34)Cc3ccccc32)c1` (stereo not shown) [Compound 135, N4-[1-(2-fluoro-5-methylbenzyl)-1,2,3,4-tetrahydroquinolin-3-yl]-1H-pyrazolo[3,4-d]pyrimidine-4,6-diamine], the inhibition at 10 µM by setting is: under setting [1], > 79%; under setting [2], > 79%; under setting [3], 50 to 79%; under setting [4], 50 to 79%; under setting [5], > 79%.

Take `COc1ccc(CN2CC(Nc3nc(N)nc4[nH]ncc34)Cc3ccccc32)cc1OCc1ccccc1` (stereo not shown) [Compound 160, N4-{1-[3-(benzyloxy)-4-methoxybenzyl]-1,2,3,4-tetrahydroquinolin-3-yl}-1H-pyrazolo[3,4-d]pyrimidine-4,6-diamine]: the inhibition at 10 µM is, setting by setting: under setting [1], > 79%; under setting [2], > 79%; under setting [3], < 50%; under setting [4], < 50%; under setting [5], > 79%.

Regarding `Nc1nc(NC2Cc3ccccc3N(S(=O)(=O)c3ccc(NC(=O)Nc4cc(C(F)(F)F)ccc4F)cc3)C2)c2cn[nH]c2n1` (stereo not shown) [Compound 196, 1-[4-({3-[(6-amino-1H-pyrazolo[3,4-d]pyrimidin-4-yl)amino]-3,4-dihydroquinolin-1(2H)-yl}sulfonyl)phenyl]-3-[2-fluoro-5-(trifluoromethyl)phenyl]urea], the inhibition at 10 µM was > 79% under setting [1]; > 79% under setting [2]; > 79% under setting [3]; 50 to 79% under setting [4]; > 79% under setting [5].

As to `Cc1ccc(S(=O)(=O)N2CC(Nc3nc(N)nc4[nH]ncc34)Cc3ccccc32)cc1` (stereo not shown) [Compound 22, N4-(1-tosyl-1,2,3,4-tetrahydroquinolin-3-yl)-1H-pyrazolo[3,4-d]pyrimidine-4,6-diamine], the inhibition at 10 µM under setting [1] was < 50%; the inhibition at 10 µM under setting [2] is < 50%; the inhibition at 10 µM under setting [3] was < 50%; the inhibition at 10 µM under setting [4] was < 50%; the inhibition at 10 µM under setting [5] is < 50%.

Regarding `Nc1nc(NC2Cc3ccccc3N(C(=O)c3c(F)ccc(Cl)c3F)C2)c2cn[nH]c2n1` (stereo not shown) [Compound 104, (3-(6-amino-1H-pyrazolo[3,4-d]pyrimidin-4-ylamino)-3,4-dihydroquinolin-1(2H)-yl)(3-chloro-2,6-difluorophenyl)methanone], the inhibition at 10 µM by setting is: under setting [1], < 50%; under setting [2], < 50%; under setting [3], < 50%; under setting [4], < 50%; under setting [5], < 50%.

With `Nc1nc(NC2Cc3ccccc3N(C(=O)c3c(F)cc(F)cc3F)C2)c2cn[nH]c2n1` (stereo not shown) [Compound 89, (3-(6-amino-1H-pyrazolo[3,4-d]pyrimidin-4-ylamino)-3,4-dihydroquinolin-1(2H)-yl)(2,4,6-trifluorophenyl)methanone], the inhibition at 10 µM runs as follows: under setting [1], < 50%; under setting [2], < 50%; under setting [3], < 50%; under setting [4], < 50%; under setting [5], < 50%.

Take `Nc1nc(NC2Cc3ccccc3N(S(=O)(=O)c3cc(Cl)ccc3Cl)C2)c2cn[nH]c2n1` (stereo not shown) [Compound 32, N4-(1-(2,5-dichlorophenylsulfonyl)-1,2,3,4-tetrahydroquinolin-3-yl)-1H-pyrazolo[3,4-d]pyrimidine-4,6-diamine]: the inhibition at 10 µM was 50 to 79% under setting [1]; > 79% under setting [2]; < 50% under setting [3]; < 50% under setting [4]; < 50% under setting [5].

Regarding `Nc1nc(NC2Cc3ccccc3N(S(=O)(=O)c3ccc(Oc4ccccc4)nc3)C2)c2cn[nH]c2n1` (stereo not shown) [Compound 64, N4-(1-(6-phenoxypyridin-3-ylsulfonyl)-1,2,3,4-tetrahydroquinolin-3-yl)-1H-pyrazolo[3,4-d]pyrimidine-4,6-diamine], the inhibition at 10 µM by setting is: under setting [1], < 50%; under setting [2], < 50%; under setting [3], < 50%; under setting [4], < 50%; under setting [5], < 50%.

Regarding `Nc1nc(NC2Cc3ccccc3N(S(=O)(=O)c3ccc(NC(=O)Nc4ccc5c(c4)CCC5)cc3)C2)c2cn[nH]c2n1` (stereo not shown) [Compound 193, 1-[4-({3-[(6-amino-1H-pyrazolo[3,4-d]pyrimidin-4-yl)amino]-3,4-dihydroquinolin-1(2H)-yl}sulfonyl)phenyl]-3-(2,3-dihydro-1H-inden-5-yl)urea], the inhibition at 10 µM was 50 to 79% under setting [1]; > 79% under setting [2]; 50 to 79% under setting [3]; > 79% under setting [4]; > 79% under setting [5].

In the case of `Nc1nc(NC2Cc3ccccc3N(Cc3ccc4nccnc4c3)C2)c2cn[nH]c2n1` (stereo not shown) [Compound 133, N4-[1-(quinoxalin-6-ylmethyl)-1,2,3,4-tetrahydroquinolin-3-yl]-1H-pyrazolo[3,4-d]pyrimidine-4,6-diamine], the inhibition at 10 µM by setting is: under setting [1], < 50%; under setting [2], < 50%; under setting [3], < 50%; under setting [4], < 50%; under setting [5], < 50%.

As to `Cc1ccccc1-n1ncc(CN2CC(Nc3nc(N)nc4[nH]ncc34)Cc3ccccc32)c1C` (stereo not shown) [Compound 161, N4-(1-{[5-methyl-1-(2-methylphenyl)-1H-pyrazol-4-yl]methyl}-1,2,3,4-tetrahydroquinolin-3-yl)-1H-pyrazolo[3,4-d]pyrimidine-4,6-diamine], the inhibition at 10 µM runs as follows: under setting [1], < 50%; under setting [2], < 50%; under setting [3], < 50%; under setting [4], < 50%; under setting [5], < 50%.

In the case of `Nc1nc(NC2Cc3ccccc3N(Cc3c(F)cccc3F)C2)c2cn[nH]c2n1` (stereo not shown) [Compound 150, N4-[1-(2,6-difluorobenzyl)-1,2,3,4-tetrahydroquinolin-3-yl]-1H-pyrazolo[3,4-d]pyrimidine-4,6-diamine], the inhibition at 10 µM by setting is: under setting [1], > 79%; under setting [2], 50 to 79%; under setting [3], < 50%; under setting [4], < 50%; under setting [5], > 79%.

With `Nc1nc(NC2CCN(S(=O)(=O)c3cccc4c(Cl)cccc34)c3ccccc3C2)c2cn[nH]c2n1` (stereo not shown) [Compound 187, N4-{1-[(5-chloro-1-naphthyl)sulfonyl]-2,3,4,5-tetrahydro-1H-1-benzazepin-4-yl}-1H-pyrazolo[3,4-d]pyrimidine-4,6-diamine], the inhibition at 10 µM is, setting by setting: under setting [1], 50 to 79%; under setting [2], 50 to 79%; under setting [3], < 50%; under setting [4], < 50%; under setting [5], 50 to 79%.
